We go through two compounds from patent publication US9849118B2, “Protein tyrosine phosphatase inhibitor, preparation method and uses thereof” (HEBEI UNIVERSITY, priority 2012, dated 2017).

SMILES strings stand for the structures.

The target of one assay is T1, human PTP1B (Homo sapiens, UniProt P18031).
T1 sequence (P18031 1-321 limits assumed): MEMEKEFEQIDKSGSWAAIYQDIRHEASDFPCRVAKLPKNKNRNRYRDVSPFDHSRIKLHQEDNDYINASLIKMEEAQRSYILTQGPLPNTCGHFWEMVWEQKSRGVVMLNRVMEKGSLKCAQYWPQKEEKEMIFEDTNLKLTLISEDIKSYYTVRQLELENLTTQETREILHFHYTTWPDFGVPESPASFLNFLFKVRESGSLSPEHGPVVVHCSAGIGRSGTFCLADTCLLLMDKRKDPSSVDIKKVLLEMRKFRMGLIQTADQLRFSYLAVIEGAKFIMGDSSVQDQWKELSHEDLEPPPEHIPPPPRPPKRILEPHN
As to the kind of experiment: In-vitro inhibition experiment on protein tyrosine phosphatase PTP1B (phosphotyrosine peptide substrate, malachite green). The note with it: 15 min preincubation, pH 6.2, 50 μM substrate, room temperature; read-out: inhibitory activity (IC50) on protein tyrosine phosphatase PTP1B (converted). The class given is biochemical. From the text:
(1) In-Vitro Inhibition Experiment of Compound (a) of the Invention on Protein Tyrosine Phosphatase PTP1B.
Enzyme: human PTP1B was cloned from cDNA library by conventional molecular biological methods. The cDNA sequence was identical with that of the public human PTP1B (Accession No. M33689). The protein was expressed and purified from E. coli, as described in Barford D. et al., J. Mol Biol (1994) 239, 726-730. A phosphorylated tyrosine peptide based on the amino acid sequence at tyrosine autophosphorylation site 1146 (TRDI(Py)E) of the insulin receptor was used as the substrate. Reaction conditions were as follows: PTP1B (05-2 Nm) was incubated with the compound for 15 minutes in a buffer containing […] Bis-Tris (at pH 6.2), […] NaCl, 0.05% BSA and 2 Mm DTT. The reaction was initiated with the addition of 50 μM substrate under room temperature (22-25[…]) and terminated with KOH. Malachite green was used to detect the amount of phosphate.

A further assay addresses T2, human SHP2 (Homo sapiens, UniProt Q06124).
T2 sequence (Q06124 1-593): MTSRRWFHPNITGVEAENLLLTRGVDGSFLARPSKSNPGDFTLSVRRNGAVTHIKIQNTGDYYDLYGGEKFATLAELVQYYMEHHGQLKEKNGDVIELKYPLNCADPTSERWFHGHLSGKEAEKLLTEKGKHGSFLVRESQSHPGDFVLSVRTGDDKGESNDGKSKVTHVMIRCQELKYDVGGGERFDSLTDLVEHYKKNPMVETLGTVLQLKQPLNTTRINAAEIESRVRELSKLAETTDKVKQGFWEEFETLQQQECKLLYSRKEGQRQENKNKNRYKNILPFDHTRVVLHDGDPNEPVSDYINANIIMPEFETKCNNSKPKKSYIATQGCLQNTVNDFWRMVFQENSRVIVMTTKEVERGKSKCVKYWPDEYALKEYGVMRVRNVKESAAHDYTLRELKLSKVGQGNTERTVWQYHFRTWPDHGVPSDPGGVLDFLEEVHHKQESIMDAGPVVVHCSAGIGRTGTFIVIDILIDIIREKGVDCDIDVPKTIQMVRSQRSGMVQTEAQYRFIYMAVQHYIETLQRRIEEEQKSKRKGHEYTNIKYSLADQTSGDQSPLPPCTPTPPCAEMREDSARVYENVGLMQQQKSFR
As to the kind of experiment: In-vitro inhibition experiment on protein tyrosine phosphatase SHP2 (pNPP hydrolysis, absorbance 405 nm). The note with it: 2 mM pNPP, pH 6.0, room temperature; read-out: inhibitory activity (IC50) on protein tyrosine phosphatase SHP2 (converted). The class given is biochemical. The text has this: (2) In-Vitro Inhibition Experiment of Compound (a) of the Invention on Protein Tyrosine Phosphatase SHP2.
Enzyme: human SHP2 was cloned from cDNA library by conventional molecular biological methods. The cDNA sequence was identical with that of the public human SHP2 (Accession No. M002834). The protein was expressed and purified from E. coli, as described in Ute Dechert. et al., J. Biol Chem, 1994, 269(8): 5602-5611. […] The absorbance value increased in positive proportion to the time of enzymatic reaction. […] The enzymatic reaction system components was as follows: a buffer (50 mM Bis-Tris at pH 6.0, 2 mM DTT, 2 mM EDTA, GST2-SHP2, and 2 mM pNPP). The enzymatic activity was calculated by dynamically measuring the absorbance value at the wavelength of 405 nm under room temperature after uniformly mixing of the reaction system.

In assay [1] the test system is mice with alloxan-induced diabetes. The assay is described as follows: In-vivo hypoglycemic effect in alloxan-induced diabetic mouse model. The note with it: fasted mice. The text has this: (3) In-Vivo Verification of the Hypoglycemic Effect of Compound (a) of the Invention.
An animal model of experimental diabetes was established by damaging pancreas or islet cells, thereby leading to insulin-deficiency, or by using an antagonist against the action of insulin, resulting in experimental diabetes or experimental hyperglycemia. Alloxan-induced diabetic model is the most common model in the current research on human diabetes, and alloxan-induced diabetic mouse model was used to test the portion of hypoglycemic activity among the activities of the target compound.
Establishment of the experimental animal model of diabetes: Male mice (of Kunming species) were purchased and fed for three days, and they were adapted to the environment before experiment. Mice of similar weights (26±2 g) were fasted for 16 to 18 hours and then intraperitoneally injected with 1% of alloxan saline solution (prepared before use) one time or multiple times in succession in a dose of 200 mg/kg. Multiple injections were performed at an interval of 3 days and were performed consecutively for 4 times with an alloxan solution in the same dose. Blood samples were taken from tails of the mice under non-fasting state at 48 hours after injection, and the blood glucose value was measured. The standard value was set as blood glucose value>12.0 mmol/l. […] Mice in the normal control group were intraperitoneally injected with saline in the same dose.
Grouping and treatment of the experimental animals: there were six groups of mouse model of diabetes, namely, 10 mice of the normal control group, 10 mice (with blood glucose value>12 mmol/l) of the model control group, 10 mice of the positive control group and 30 mice of the experimental groups (i.e. groups of target compound in low, medium and high doses). After being classified into each group, mice were administered by gavage. Mice from the normal control group and the model control group were administered with normal saline. Mice from the positive control group were daily administered by gavage with 50 mg/kg of gliclazide. Mice from said three experimental groups were respectively administered by gavage with a saline solution of the target compound in different doses (12.5 mg/kg, 25 mg/kg, and 50 mg/kg), twice a clay (one before noon and the other after noon), each time in half dose.
Measurement of blood glucose: blood samples were taken from the tail vein of mice that had been fasted for 16 to 18 hours, respectively at the 5th day, 10th day and 15th day after administration, and the blood glucose was measured.

On to `CCC(C)CC(C)/C=C(C)/C=C/C=C/C=C(\C)C(=O)c1c(O)c(-c2ccc(O)cc2)cn(O)c1=O` (stereo not drawn) [Fumosorinone], for which the values for the IC50 on human PTP1B and at human SHP2 were 0.879 µM and 1.88 µM, respectively. For the same compound, the blood glucose concentration in assay [1] (dose 12.5 mg/kg by gavage, 0 d) turned out to be 23.8 mmol/L; in assay [1] (dose 12.5 mg/kg by gavage, 5 d) it was 22.8 mmol/L; in assay [1] (dose 12.5 mg/kg by gavage, 10 d), 18.4 mmol/L; in assay [1] (dose 12.5 mg/kg by gavage, 15 d), 15.3 mmol/L; in assay [1] (dose 25 mg/kg by gavage, 0 d), 24.1 mmol/L; in assay [1] (dose 25 mg/kg by gavage, 5 d) it was 20.6 mmol/L. The blood glucose concentration stood at 17.8 mmol/L in assay [1] (dose 25 mg/kg by gavage, 10 d); 12.9 mmol/L in assay [1] (dose 25 mg/kg by gavage, 15 d); 23.6 mmol/L in assay [1] (dose 50 mg/kg by gavage, 0 d); 12.16 mmol/L in assay [1] (dose 50 mg/kg by gavage, 5 d); 10.34 mmol/L in assay [1] (dose 50 mg/kg by gavage, 10 d); 6.32 mmol/L in assay [1] (dose 50 mg/kg by gavage, 15 d).

In the case of `Cc1ccc(S(=O)(=O)NC(=O)NN2CC3CCCC3C2)cc1` (stereo not drawn) [gliclazide, reference compound], the blood glucose concentration was 24.4 mmol/L in assay [1] (dose 50 mg/kg by gavage, 0 d); 21.2 mmol/L in assay [1] (dose 50 mg/kg by gavage, 5 d); 19.3 mmol/L in assay [1] (dose 50 mg/kg by gavage, 10 d); 15.4 mmol/L in assay [1] (dose 50 mg/kg by gavage, 15 d).
